System: P. falciparum 3D7
Assay: P. falciparum 3D7 SCID mouse model, in vivo efficacy
Set-up: species or system Plasmodium falciparum (SCID mice)
Conditions: oral 150 mg kg^–1 day^–1, four consecutive days, one animal
Method: The animal experiments against P. berghei were carried out at the Swiss Tropical and Public Health Institute adhering to local and national regulations of laboratory animal welfare in Switzerland (awarded permission no. BL530). Protocols are regularly reviewed and revised following approval by the local authority (Amt für Lebensmittelsicherheit and Veterinärwesen Basel-Land). Female mice infected with GFP-expressing P. berghei (ANKA strain, donated by A. P. Waters and C. J. Janse, Leiden University, The Netherlands) were analyzed for in vivo efficacy of 7e and 8a as described previously.[18],[19] Parasitemia was determined using flow cytometry with a detection limit of 1 parasite in 1000 erythrocytes. Compound activity was calculated as the difference between the mean parasitemia for the control and treated groups (n = 3, each) expressed relative to the control group. 7e and 8a were suspended in 70/30 Tween 80/ethanol, diluted 10-fold with water and administered orally 4, 24, 48, and 72 h after infection. 7e was analyzed at 30, 10, and 3 mg kg^–1, 8a at 50, and 10 mg kg^–1. In vivo efficacy against P. falciparum was conducted at The Art of Discovery, TAD, Bizkaia, Spain, according to the previously described standard assay.[16],[17]

CCCNc1ccc(C(=O)/C=C(\O)C(F)(F)C(F)(F)F)cn1 [7e, 4,4,5,5,5-Pentafluoro-3-hydroxy-1-(6-(propylamino)pyridin-3-yl)pent-2-en-1-one]
effect on parasite load: decreased the parasite load below the starting parasitemia

From publication PMC11513924, “Addressing the Intracellular Vestibule of the Plasmodial Lactate Transporter PfFNT by p-Substituted Inhibitors Amplifies In Vitro Activity” (Journal of Medicinal Chemistry, 2024)
